Like-named read-outs stand apart in the source and are kept apart here.
Legend:
[1] = test system: mechanical (tactile) allodynia in streptozotocin diabetic rats; conditions: i.p.; for Duration / Time to peak effect: Table III; for Max. efficacy (% MPE): Table III (3, 10 and 20 mg/kg levels only); for maximum efficacy or highest % suppression of allodynia at highest dosage unaffected by toxicity: Example 6
Procedure: (§1) Rats are made diabetic by a single intraperitoneal injection of streptozotocin (50 mg/kg body weight) freshly dissolved in 0.9% sterile saline) in order to ablate pancreatic β cells and induce insulin deficiency. Two days later, diabetes is confirmed in streptozotocin-injected rats by measuring glucose concentration in a blood sample obtained by tail prick, using a glucose oxidase-impregnated test strip and reflectance meter (Ames Glucostix and Glucometer II, Myles Inc., Elkhart, Ind.) (Calcutt, et al., 1993). Streptozotocin-injected animals with blood glucose concentrations below 15 mmol/l are excluded from subsequent studies. Diabetic rats received thrice weekly sub-cutaneous injections of 2U heat-treated Ultralente insulin (Novo Industrie A/C, Copenhagen, Denmark) in a regime shown to prevent loss of body weight and musculature whilst allowing continued hyperglycemia. Injections were made on Monday, Wednesday and Friday and behavioral measurements made on Tuesdays and Thursdays.

[2] = test system: mechanical (tactile) allodynia in streptozotocin diabetic rats; test: animal or person; conditions: Rattus norvegicus, ip
Procedure: as §1

[3] = cited from earlier work
painful neuropathies = conditions: oral administration, literature; cited from earlier work
[4] = test system: mechanical (tactile) allodynia in nerve ligation (Chung) model rats; test: animal or person; conditions: for Duration / Time to peak effect / Max. efficacy (% MPE): Table I; for Max. efficacy (% MPE): highest dose tested; for ED50: Rattus norvegicus, ip
Procedure: Rats (male Sprague Dawley, Harlan Industries, Indianapolis, Ind.) are housed in ALAC approved cages using soft bedding and 12/12 hour day/night cycle, in atmospherically maintained rooms in the CTF/VA Animal Vivarium. For the nerve ligation model, rats are typically lesioned at 125-175 g body weight, while for the diabetic rat model, 275-325 gram rats are employed.
Kim SH, Chung JM: An experimental model for peripheral neuropathy produced by segmental spinal nerve ligation in the rat. Pain 50: 355-363 (1992).
Anomalous pain states evoked by nerve injury in man is believed to be modeled by effects produced by chronic peripheral nerve injury lesion in rats. To create a chronic nerve injury the L5 and L6 spinal nerves are visualized by removal of the L6 transverse process. The two spinal nerves are ligated with 6-0 silk thread […] under halothane anesthesia. […] The rats were allowed a 7 day postoperative recovery period before further studies or procedures.
Rats were placed in a clear plastic, wire mesh-bottomed cage, divided into individual compartments of 5×6×9 inches, which permitted freedom of movement while allowing access to the paws to be tested. Animals were allowed to accommodate to this environment for approximately 15 minutes, or until cage exploration behavior ceased. To assess the 50% mechanical threshold for paw withdrawal, von Frey hairs were applied to the plantar mid-hindpaw, avoiding the footpads. The eight von Frey hairs used are designated by and range from 0.4-15.1 grams (#'s3.61-5/18). Each hair was pressed perpendicularly against the paw with sufficient force to cause bending, and held for approximately 6-8 seconds. A positive response was noted if the paw was sharply withdrawn. Absence of a response was cause to present the next consecutive stronger stimulus: a positive response was cause to present the next weaker stimulus. If a change in response occurred, causing a change in the direction of stimulus presentation from descending to ascending or vice-versa, four additional data points were collected subsequent to the change. Stimuli were presented successively until either six data points were collected, or the maximum or minimum stimulus was reached. If a minimum stimulus was reached and positive responses still occurred, the threshold was assigned an arbitrary minimum value of 0.25 grams; if a maximum stimulus was presented and no response occurred, a maximum threshold value of 15 grams was assigned. The resulting pattern of responses was tabulated and the 50% response threshold computed using the formula:
log (threshold, mg×10)=Xf+k∂
Based on observations on normal, unoperated rats and sham-operated rats, the cutoff of a 15.1 g hair is selected as the upper limit for testing. (Chaplan, et al., 1994.)
Four agents were examined. […] The dose range was determined on a single rat on a 0.5 log unit dose until an endpoint of effect was reached (loss of motor function, seizure/rigidity, complete nerve blockage). Once the dose range was established, each drug was examined at a minimum of 3 doses in groups of 6 rats per dose. Groups were prepared to receive injections of drugs, or saline control, by i.p. injection. After the animals accommodated to the post-operative test environment, animals received treatment and the effects upon the tactile threshold were determined using the up-down method as described in Example 3. The following is a typical paradigm for IP application: […]

cardiac sodium channels = conditions: Hill et al. 1988; cited from earlier work
arrhythmia in dogs = conditions: cited from earlier work
[5] = stated without a described test
[6] = 30 mg/kg, affected by toxicity/behavioral problems, not probative
[7] = read-out: ED 50 or the calculated dose for 50% suppression
[8] = Chung model rats, i.p., Example 5

SMILES	% MPE ([1]; 3 mg/kg) [% MPE]	% MPE ([1]; 10 mg/kg) [% MPE]	% MPE ([1]; 20 mg/kg) [% MPE]	% MPE [1, 6] [% MPE]	Duration [1] [min]	Time to peak effect [1] [min]	Max. efficacy (% MPE) [1] [% MPE]	ED50 [2] [mg/kg]	Duration ([4]; Chung model rats, i.p.) [min]	Time to peak effect ([4]; Chung model rats, i.p.) [min]	Max. efficacy (% MPE) ([4]; Chung model rats, i.p.)	ED50 [4] [mg/kg]	ED50 [4, 7] [mg/kg]	maximum efficacy or highest % suppression of allodynia at highest dosage unaffected by toxicity [1]	maximum efficacy or highest % suppression of allodynia at highest dose tested [4, 8]	further results
Cc1cccc(C)c1OCC(C)N (racemic) [RS-Mexiletine, (R,S)-mexiletine]	20	29	42	75	< 60	30 to 45	61	17	60	15 to 30	76	35	35	–	–	therapeutic-toxic concentration range ([3]; Monk et al. 1990): 0.5 to 2.0 µg/mL; incidence of adverse side effects (tremors, diplopia, nausea and vomiting) ([3]; human, in vivo): up to 70% of patients; efficacy in painful neuropathies (painful neuropathies): has shown efficacy for a variety of painful neuropathies
CCN(CC)CC(=O)Nc1c(C)cccc1C [Lidocaine, lidocaine]	–	–	–	–	30	30	39	32	90	15	83	38	–	–	–	–
Cc1cccc(C)c1OC[C@@H](C)N [R-Mexiletine, (R)-mexiletine]	10	15	11	86	–	15 to 30	11	–	–	30	12	–	–	11%±5%	12%±5%	binding affinity relative to (S)-mexiletine (cardiac sodium channels): twice that of (S)mexiletine; antiarrhythmic properties relative to the (S)-isomer (arrhythmia in dogs; background finding referred to): greater than two times more antiarrhythmic properties than the (S)-isomer; antiarrhythmic properties relative to the (S)-enantiomer (arrhythmia in dogs; dogs, Turgeon et al. 1991): greater antiarrhythmic properties than the (S)-enantiomer; ED 50 (in words) [4, 8]: could not be calculated due to low effect at maximum dose
Cc1cccc(C)c1OC[C@H](C)N [S-Mexiletine, (S)-mexiletine]	12	50	30	75	60	15 to 45	65	15	60	15	79	14	14	65%±16%	79%±11%	therapeutic-toxic range [5]: 0.25 to 4 µg/mL
